{"source": "patent US10287337B2", "about": "(priority 2015, dated 2019)", "key": {"[1]": {"tested_on": "paw incision-induced postoperative pain in rats", "assay": "Paw incision-induced postoperative pain model, mechanical pain threshold", "format": "in vivo, rat", "conditions": "rat, in vivo", "text": "A clinically applicable incision model in rodents is a hind-paw deep incision that produces a robust mechanical and cold allodynia, and thermal hyperalgesia (Pogatzki et al., 2003; Xu and Brennan, 2010). Male rats (Sprague-Dawley, 250-260 g, Harlan) used (n=8/group) were anesthetized with 2.5% isoflurane and the skin of the dorsolateral hindpaw surface were prepped by first depilitating it (using Nair), followed by rinsing and application of povidone-iodine. Afterwards, a 5 mm longitudinal incision was made near the hairy/glabrous border though the skin and subcutaneous fascia of the left hindpaw as described by (Pogatzki et al., 2003; Xu and Brennan, 2010). After briefly elevating the underlying muscle with curved forceps the wound is closed with a single nylon (8-0) mattress stitch.\nPre-surgery (baseline) and 24 hours after the surgery, the mechanical allodynia of the incision hindpaws of the rats were assessed using von Frey monofilaments with an up/down procedure (Chaplan et al., 1994). […] Mechanical pain thresholds were measured at 0.5, 1, 2, 3, 4, 5 and 6 hours post-intradermal injection."}, "[2]": {"tested_on": "UVB radiation-induced inflammatory pain in rat cheek", "format": "in vivo", "conditions": "rat, in vivo"}, "[3]": {"tested_on": "spared nerve injury-induced neuropathic pain in rats", "assay": "Spared nerve injury (SNI)-induced neuropathic pain model, thermal and mechanical pain thresholds", "format": "in vivo, rat", "conditions": "rat, in vivo", "method": "Of the three branches of the sciatic nerve the tibial and common peroneal nerves were cut and ligated leaving the sural nerve intact. Pre-surgery baselines (BL, 100%) of the thermal and mechanical pain thresholds of the ipsilateral hindpaws were measured using the Hargreaves thermal stimulator (6.0 A with a surface temperature of 30° C.; Hargreaves et al., 1988) and von Frey hair monofilaments (up-down method, Chaplan et al., 1994). […] All drug testing was conducted with this post-SNI period.\nThe rat recovered from anesthesia within a few minutes and the thermal and mechanical pain thresholds were determined at 0.5, 1, 2, 3, 4, 5 and 6 hour after the treatment using the methods described above.\nUsing the same test protocol in a different cohort of SNI rats, novel AFA-peptide 3 (0.1, 1 and 3 μM, each 50 μL) or the vehicle (50 μL) was injected into the ipsilateral hindpaws under a brief and light anesthesia condition (with 2.5% isoflurane). The thermal and mechanical pain thresholds were determined at 0.5, 1, 2, 3, 4, 5 and 6 hour after the treatment. […]"}, "[4]": {"tested_on": "UVB radiation-induced inflammatory pain in rat cheek", "format": "in vivo", "conditions": "rat, in vivo", "text": "Ultraviolet B (UVB) radiation causes cutaneous inflammation in humans and animals. One important clinical consequence of UVB-induced inflammation is causing hyperalgesia. Changes in thermal sensitivities in the area of primary UVB irradiation are well documented both in humans and in the animal models (Zhang et al., 2009). […] This model provides an experimental model of post radiation pain and can mimic one type of burn pain. To determine the magnitude of anti-inflammatory pain effects for a given drug transdermally delivered by way of microneedle delivery, the depilated rat's cheeks were exposed to an inflammatory dosage of Ultraviolet B radiation (Zhang et al., 2009).\nWith the skin of a rat's cheek was stretched, the circular (8 mm in diameter) fiberglass applicator of the UV Curing Device (Dymax Bluewave 200) was applied to the center of the rat's cheek. To produce an appropriate inflammation, a total dose of 1200 mJ/cm^2 UVB was administered to one rat cheek for 25 seconds. The same procedure was performed on the rat's contralateral cheek. Upon completion of UVB irradiation, all rats were returned to their home cages and were assessed for thermal pain between 24-48 hours later. […] The rats were lightly anesthetized with urethane (800 mg/kg, IP) and heat-induced withdrawal latencies of the cheeks (an indicator of C fiber stimulation responses) were measured. […] A sham control group (n=6) were only completely depilated and cleansed with ethanol wipes but without UVB challenge.\nAfter removing patches, cheek withdrawal latencies induced by continuous and noxious heat were assessed at different time points from the end of the 20 minute treatment period up to 3 hours post treatment.\nThe patches were applied on the rat cheek for 20 minutes. After removing the patches, cheek withdrawal latencies induced by continuous and noxious heat were assessed at different time points up to 3 hours as described above.\n(§1) After removing the patches, cheek withdrawal latencies induced by continuous and noxious heat were assessed at different time points up to 3 hours.\nAccordingly, anti-inflammatory effects were examined 48 hours post-UVB and after the application of the patch. Twelve rats were subjected to UVB radiation (1200 mJ/cm^2). […] The patch was placed over the inflamed area for a period of 20 minutes. […] Sham control group rats (n=6) were completely depilated and cleansed with ethanol wipes but without any other treatment. The rats were returned to their home cages, and assessed for thermal pain responses 48 hours later. As usual, cheek withdrawal latencies in response to continuous and noxious heat were recorded over a 3-hour time period (hours 49-51 post-UVB).\nas §1\nAfter removing the patches, cheek withdrawal latencies induced by continuous and noxious heat were assessed at different time points from 20 minutes post administration up to 3 hours.\nBecause UVB-irradiation may increase skin permeability, a topical formulation, but not limited to the sample shown here, was made.", "remark": "listed apart in the source"}, "[5]": {"tested_on": "normal physiological pain sensation in normal rats", "assay": "Normal rats cheek withdrawal latency to noxious heat", "conditions": "rat, in vivo", "method": "Ideal therapeutics of anti-inflammatory pain or anti-hypersensitivity (occurred in neuropathic pain) should not interfere with normal physiological pain sensations. […] After removing the patches, cheek withdrawal latencies (mean±SEM) were assessed using continuous and noxious heat at different time points within the initial 3 hours test period."}, "[6]": {"tested_on": "electrocutaneous stimulation-induced facial pain in rats", "assay": "Electrocutaneous stimulation-induced facial inflammatory pain model", "format": "in vivo, rat", "conditions": "rat, in vivo", "method": "In humans electrocutaneous stimulation elicited vasodilatation in the cheek (Vassend and Knardahl, 2005). […] Baseline facial thermal thresholds of rats (Sprague-Dawley, male, 260-300 g) were assessed on the rats' depilated left cheek and then each rat received 1 hour of electrocutaneous facial stimulation using WPI ISOSTIM™ A320 (World Precision Instruments, 0.4 mA intensity, 10 ms duration, Is inter-pulse interval). 24 hr after stimulation (Day 1), each rat's thermal pain threshold mediated by A-delta fiber and C fiber were separately measured using a thermal nociception lamp (variable voltage regulator model: No. SC-3M) to evoke A-delta and C nerve fiber-mediated cheek withdrawal. […] Thermal thresholds were measured once every 0.5 hour for the first 3 hours post-I.N. dosing, and then 4, 5, and 6 hour post-I.N. dosing. Voltage regulator set to 90V for A-delta fiber testing and 45V for C fiber testing. Cutoff set at 6 seconds and 20 seconds for A-delta fiber and C fiber testing, respectively."}, "[7]": {"tested_on": "STZ-induced diabetic pain in rats", "assay": "Streptozotocin (STZ)-induced diabetic neuropathic pain model", "conditions": "rat, in vivo", "method": "Painful peripheral neuropathy is a common secondary complication of diabetes mellitus. Streptozotocin (STZ)-induced diabetic polyneuropathy causes more broad pain and has neurogenic inflammation component in rodents (Bishnoi et al., 2011). Prior to STZ administration, each rat's baseline of thermal and mechanical thresholds on their individual hindpaws were assessed using the Hargreaves thermal pain test, and von Frey mechanical pain test, respectively.\nAfter removing the patches, hindpaw withdrawal latencies induced by continuous and noxious heat (Hargreaves) were assessed at 1 hour post-microneedle application."}, "[8]": {"target": "T1, human calcitonin CGRP1 (CGRP1) membrane (Homo sapiens, UniProt O60894+Q16602)", "T1 construct": "purchased Perkin Elmer (Waltham, Mass.)", "T1 sequence (O60894 27-148)": "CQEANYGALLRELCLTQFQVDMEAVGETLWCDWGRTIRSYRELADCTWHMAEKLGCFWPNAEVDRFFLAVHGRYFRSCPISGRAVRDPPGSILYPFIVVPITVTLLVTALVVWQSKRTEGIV", "T1 sequence (Q16602 23-461)": "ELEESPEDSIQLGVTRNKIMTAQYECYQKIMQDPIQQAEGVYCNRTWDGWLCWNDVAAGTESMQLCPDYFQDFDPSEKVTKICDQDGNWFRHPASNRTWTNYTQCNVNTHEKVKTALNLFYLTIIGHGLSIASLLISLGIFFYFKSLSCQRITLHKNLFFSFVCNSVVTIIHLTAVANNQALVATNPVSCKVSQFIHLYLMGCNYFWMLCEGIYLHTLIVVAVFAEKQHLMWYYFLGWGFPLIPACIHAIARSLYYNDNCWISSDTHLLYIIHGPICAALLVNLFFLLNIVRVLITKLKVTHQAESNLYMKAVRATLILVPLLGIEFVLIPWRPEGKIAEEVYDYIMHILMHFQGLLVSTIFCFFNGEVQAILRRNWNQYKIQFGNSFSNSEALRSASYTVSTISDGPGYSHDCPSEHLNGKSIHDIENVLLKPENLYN", "format": "binding", "conditions": "for Hill slope: 0.24 nM [125I]-CGRP, Mean±SD; for binding affinity on CGRP receptors (in words): comparison between peptides", "method": "CGRP1 membrane was homogenized in the assay buffer (50 mM Tris-HCl pH 7.4, 5 mM MgCl2, 0.5% BSA, 0.05% Tween20). […] After 1 h of incubation, at room temperature, samples were filtered, using a Tomtec cell harvester, through glass fiber filters that had been presoaked in 0.05% polyethyleneimine and washed with the cold Tris buffer (50 mM Tris-HCl pH7.4). Filters were counted on a betaplate reader (Wallac)."}}, "note": "“And” between values parts separate entries of the source, which are not always exact repeats. Identical values can stand only once. No end group written: not given here.", "data": [{"compound": "CSCC[C@H](NC(=O)CNC(=O)CNC(=O)[C@H](CO)NC(=O)[C@H](CCCNC(=N)N)NC(=O)[C@H](CO)NC(=O)[C@H](CC(C)C)NC(=O)[C@H](CC(C)C)NC(=O)CNC(=O)[C@H](C)NC(=O)[C@H](CC(C)C)NC(=O)[C@H](CCCNC(=N)N)NC(=O)[C@H](Cc1c[nH]cn1)NC(=O)[C@@H](NC(=O)[C@@H](N)C(C)C)[C@@H](C)O)C(=O)N[C@H](C(=O)N[C@@H](CCCCN)C(=O)N[C@@H](CO)C(=O)N[C@@H](CC(N)=O)C(=O)N[C@@H](Cc1ccccc1)C(=O)N[C@H](C(=O)N1CCC[C@H]1C(=O)N[C@H](C(=O)N[C@@H](CC(N)=O)C(=O)N[C@H](C(=O)NCC(=O)N[C@@H](CO)C(=O)N[C@@H](CCCCN)C(=O)N[C@@H](C)C(=O)N[C@@H](Cc1ccccc1)C(N)=O)C(C)C)[C@@H](C)O)C(C)C)C(C)C", "note": "[CGRP 8-37]", "values": [{"measurement": "mechanical pain thresholds vs vehicle (in words)", "setting": "[1]", "value": "significantly increased mechanical pain thresholds"}, {"measurement": "onset of analgesic effect post treatment", "setting": "[1]", "value": 1, "unit": "h"}, {"measurement": "A-delta-fiber-mediated responses (in words)", "setting": "[2]", "value": "little effects"}, {"measurement": "duration of anti-allodynic effect", "setting": "[3]", "value": "up to 6 hours"}, {"measurement": "duration of thermal antihyperalgesic effect", "setting": "[3]", "value": "up to 5 hours"}, {"measurement": "effect on thermal threshold (in words)", "setting": "[3]", "value": "full reversal to baseline thermal threshold values"}, {"measurement": "return toward baseline mechanical sensitivity", "setting": "[3]", "value": "~25", "unit": "%"}, {"measurement": "thermal and mechanical pain thresholds (in words)", "setting": "[3]", "value": "reduced SNI-induced neuropathic pain"}, {"measurement": "time of full reversal / peak antihyperalgesic effect after application", "setting": "[3]", "value": "around 1 hour"}, {"measurement": "time of maximal anti-allodynic effect post-microneedle application", "setting": "[3]", "value": 3, "unit": "h"}, {"measurement": "Average Reduced Latency for Inflammation, Mean", "setting": "[4]", "value": "9.9 s and 10.5 s and 11.2 s and 11.0 s and 12.2 s and 8.0 s and 9.1 s"}, {"measurement": "C-fiber-mediated thermal pain thresholds vs vehicle (in words)", "setting": "[4]", "value": "significant and substantial increase"}, {"measurement": "duration of action", "setting": "[4]", "value": 2, "unit": "h"}, {"measurement": "Normal Rats Average Pain Response Latency, Mean", "setting": "[5]", "value": "10.3 s and 11.0 s and 11.2 s and 10.6 s and 10.5 s and 9.6 s and 10.1 s and 10.2 s"}, {"measurement": "analgesic effect on normal nociceptive pain (in words)", "setting": "[5]", "value": "did not produce any measurable analgesic effect"}, {"measurement": "A-delta fiber-mediated pain withdrawal latencies vs vehicle (in words)", "setting": "[6]", "value": "insignificant analgesic effects"}, {"measurement": "C-fiber-mediated pain withdrawal latencies vs vehicle (in words)", "setting": "[6]", "value": "even more substantial and significantly prolonged"}, {"measurement": "thermal pain thresholds in naïve, non-facial stimulation rats (in words)", "setting": "[6]", "value": "did not alter thermal pain thresholds"}, {"measurement": "return to mechanical pain baseline values", "setting": "[7]", "value": 35, "unit": "%"}, {"measurement": "thermal threshold (in words)", "setting": "[7]", "value": "full return to their baseline thermal thresholds"}]}, {"compound": "NCC1(CC(=O)O)CCCCC1", "note": "[Gabapentin, gabapentin]", "values": [{"measurement": "duration of thermal antihyperalgesic effect", "setting": "[3]", "value": 3, "unit": "h"}, {"measurement": "effect on thermal threshold (in words)", "setting": "[3]", "value": "significant antihyperalgesic effect"}, {"measurement": "time of full reversal / peak antihyperalgesic effect after application", "setting": "[3]", "value": 1, "unit": "h"}]}, {"compound": "CCN(CC)CC(=O)Nc1c(C)cccc1C", "note": "[Lidocaine, lidocaine]", "values": [{"measurement": "thermal and mechanical pain thresholds (in words)", "setting": "[3]", "value": "produced positive control"}, {"measurement": "analgesic effect on normal nociceptive pain (in words)", "setting": "[5]", "value": "produced analgesic effect on normal nociceptive pain"}]}, {"compound": "H-NFAPTNVGPFAF-NH2 [AFA- peptide 10, NH2-N-F-A-P-T-N-V-G-P-F-A-F-CONH2]", "values": [{"measurement": "Hill slope", "setting": "[8]", "value": "1.07 ± 0.01"}, {"measurement": "binding affinity on CGRP receptors (in words)", "setting": "[8]", "value": "higher affinities than conventional CGRP 27-37 and CGRP 8-37"}]}, {"compound": "H-NFFPTNVGPFAF-NH2 [AFA- peptide 9, NH2-N-F-F-P-T-N-V-G-P-F-A-F-CONH2]", "values": [{"measurement": "Hill slope", "setting": "[8]", "value": "1.07 ± 0.05"}, {"measurement": "binding affinity on CGRP receptors (in words)", "setting": "[8]", "value": "higher affinities than conventional CGRP 27-37 and CGRP 8-37"}]}, {"compound": "H-NFIPTNVGPFAF-NH2 [AFA- peptide 6, NH2-N-F-I-P-T-N-V-G-P-F-A-F-CONH2]", "values": [{"measurement": "Hill slope", "setting": "[8]", "value": "1.13 ± 0.13"}]}, {"compound": "H-NFLPTNVGPFAF-NH2 [AFA- peptide 7, NH2-N-F-L-P-T-N-V-G-P-F-A-F-CONH2]", "values": [{"measurement": "Hill slope", "setting": "[8]", "value": "1.03 ± 0.15"}, {"measurement": "binding affinity on CGRP receptors (in words)", "setting": "[8]", "value": "higher affinities than conventional CGRP 27-37 and CGRP 8-37"}]}, {"compound": "H-NLVPTNVGPFAF-NH2 [AFA- peptide 8, NH2-N-L-V-P-T-N-V-G-P-F-A-F-CONH2]", "values": [{"measurement": "Hill slope", "setting": "[8]", "value": "0.88 ± 0.18"}]}, {"compound": "YVPTAVGPFAF-NH2 [CGRP 27-37]", "values": [{"measurement": "Hill slope", "setting": "[8]", "value": "1.62 ± 0.25"}]}]}
